We go through eleven compounds from publication PMC10820528, “New Rare Triterpene Glycosides from Pacific Sun Star, Solaster pacificus, and Their Anticancer Activity” (Marine Drugs, 2023).

Data set [1] has as its system human embryonic kidney HEK 293 cells. Nature of the data set: cells. It counts as cell-based. The following applies: for IC50: read-out: IC50, HEK 293. On the procedure: (§1) We calculated the inhibiting concentration that cause death of 50% of cells (IC50) and the selectivity index (SI) of the compounds tested (Table 4).
(§2) The human embryonic kidney HEK 293 cells (ATCC® CRL-1573™), breast cancer MDA-MB-231 cells (ATCC® HTB-26™), and colorectal carcinoma HCT 116 cells (ATCC® CCL-247™) were purchased from the American Type Culture Collection (Manassas, VA, USA). The HEK 293 and MDA-MB-231 cells were cultured in DMEM; the HCT 116 cells were cultured in the McCoy’s 5A medium at 37 °C in a humidified atmosphere containing 5% CO2. The culture media were supplemented with 10% heat-inactivated FBS and a 1% penicillin/streptomycin solution. The number of passages was carefully controlled, and contamination by Mycoplasma was monitored on a regular basis.
(§3) Compounds 1–3, and 6–8 were dissolved in sterile dimethyl sulfoxide (DMSO), to prepare stock concentrations of 20 mM. Cells were treated with serially diluted 1–3, 6–8 (0.3–100 µM) (with the culture medium used as diluent) (the final concentration of DMSO was less than 0.5%). The vehicle control was the cells treated with an equivalent volume of DMSO (the final concentration was less than 0.5%) for all of the presented experiments.
(§4) HEK 293 (1.0 × 10^4/200 µL), HCT 116 (1.0 × 10^4/200 µL), and MDA-MB-231 (0.8 × 10^4/200 µL) cells were seeded in a 96-well plate and incubated for 24 h at 37 °C in a CO2 incubator. […] The cells were subsequently incubated with 15 µL of the MTS reagent for 3 h. The absorbance of each well was measured at 490/630 nm on a Power Wave XS microplate reader (BioTek, Winooski, VT, USA).
(§5) The IC50 concentration was calculated using the AAT-Bioquest® online calculator [24]. The selectivity index (SI) was calculated as described previously, using the following formula: SI = IC50 of the compounds for normal cells (HEK 293) divided by IC50 of the same compounds for the human colorectal adenocarcinoma and breast cancer (HCT 116 and MDA-MB-231) cell lines.

Data set [2] has as its system breast cancer MDA-MB-231 cells. Nature of the data set: cells. Type of data set: cell-based. As to conditions: for IC50: read-out: IC50, MDA-MB-231. On the procedure: as §1, §2, §3, §4, §5
Data set [3] has as its system colorectal carcinoma HCT 116 cells. Nature of the data set: cells. The following applies: for IC50: Homo sapiens, read-out: IC50, HCT 116. Type of data set: cell-based. On the procedure:
We determined the cytotoxicity of compounds 1–3 and 6–8 against human embryonic kidney HEK 293, colorectal carcinoma HCT 116, and breast cancer MDA-MB-231 cells by the MTS assay, after 24 h of treatment with the compounds. We calculated the inhibiting concentration that cause death of 50% of cells (IC50) and the selectivity index (SI) of the compounds tested (Table 4).
as §2, §3, §4, §5

Another data set has as its system MDA-MB-231 cells. As to conditions: non-toxic concentration; cited from earlier work.
A further data set concerns HT-29 cells. As to conditions: non-toxic concentration; cited from earlier work.
For the next data set, the system named is RPMI-7951 cells. The following applies: non-toxic concentration; cited from earlier work.
The test system of the next data set is SK-MEL-2 cancer cells. More on the design: method as in PMID 35323516. The following applies: non-toxic concentrations; cited from earlier work.
The subject of the next data set is JB6 Cl41 cells. On the set-up: method as in PMID 35323516. As to conditions: induced by chemical carcinogens (EGF and TPA) or ionizing radiation (X-rays and UVB), non-toxic concentrations; cited from earlier work.
[4] abbreviates: MTS assay, cisplatin, 48 h of cell incubation, mean ± SD.
Setting [5] is: HCT-116, MTS assay, 24 h of cell incubation, mean ± SD.
Setting [6] is: Homo sapiens, HEK293, MTS assay, 24 h of cell incubation, mean ± SD.
The mark [7] stands for this setting: Homo sapiens, MDA-MB-231, MTS assay, 24 h of cell incubation, mean ± SD.

Like-named read-outs stand apart in the source and are kept apart here.

In the case of `N.N.[Cl][Pt][Cl]` [Cisplatin, cisplatin, reference compound], the results for the IC50 in data set [1] (setting [4]) and in data set [2] (setting [4]) were 64.6 ± 1.5 µM and 34.5 ± 0.5 µM, respectively.
In the case of `C=C(C)C1C2CC3(C)C4=CCC5C(C)(C)C(OC6OCC(O)C(O)C6OC6OC(C)C(O)C(O)C6OC6OCC(O)C(O)C6O)CCC5(C)C4CCC13C(=O)O2` [Compound 1, 3β-O-[β-D-xylopyranosyl-(1→2)-β-D-quinovopyranosyl-(1→2)-β-D-xylopyranosyl]-23,24,25,26,27-pentanor-5α-lanosta-7,20(22)-diene-18(16)-lactone], the values for the IC50 in data set [3] (setting [5]), in data set [1] (setting [6]) and in data set [2] (setting [7]) were 81 ± 3.2 µM, 27 ± 0.3 µM and 51.2 ± 0.8 µM, respectively.
As to `CO[C@@H]1[C@@H](O)[C@H](O[C@@H]2[C@@H](O)[C@H](O[C@H]3[C@H](O)[C@@H](O)[C@H](O[C@H]4[C@H](O[C@H]5CC[C@]6(C)C7=C(CC[C@H]6C5(C)C)[C@]5(C)C[C@H](O)[C@H]([C@@](C)(O)CCC=C(C)C)[C@@]5(CO)CC7)OC[C@@H](O)[C@@H]4O)O[C@@H]3C)O[C@H](CO)[C@H]2O)OC[C@H]1O` [Compound 3, (20S)-3β-O-[3-O-methyl-β-D-xylopyranosyl-(1→3)-β-D-glucopyranosyl-(1→4)-β-D-quinovopyranosyl-(1→2)-β-D-xylopyranosyl]-16β,18,20-trihydroxy-5α-lanosta-8(9),24-diene], the “cytotoxic activity in words, HCT 116” value in data set [3] was “Moderate”. Besides, the IC50 amounted to 42.2 ± 0.4 µM in data set [3] (setting [5]), 52.8 ± 0.8 µM in data set [1] (setting [6]) and 36.7 ± 3.3 µM in data set [2] (setting [7]). Also, in data set [3] (mean IC50 against normal cells (HEK 293)/mean IC50 against HCT 116, 24 h), the “SI (selectivity index), HCT 116” value is given as 1.25. In data set [1], the “cytotoxic activity in words, HEK 293” value is on record as “Moderate”. The “cytotoxic activity in words, MDA-MB-231” value in data set [2] is on record as “Moderate”. In addition, the “SI (selectivity index), MDA-MB-231” value in data set [2] (mean IC50 against normal cells (HEK 293)/mean IC50 against MDA-MB-231, 24 h) stood at 1.4.
Consider `COC1C(O)COC(OC2C(O)C(CO)OC(OC3C(C)OC(OC4C(OC5CCC6(C)C7=C(CCC6C5(C)C)C5(C)CC(OC(C)=O)C6C(C)(C=CC=C(C)C)OC(=O)C65CC7)OCC(O)C4O)C(O)C3O)C2O)C1O` [Compound 6, 3β-O-[3-O-methyl-β-D-xylopyranosyl-(1→3)-β-D-glucopyranosyl-(1→4)-β-D-quinovopyranosyl-(1→2)-β-D-xylopyranosyl]-16β-acetoxyholosta-8(9),22E,24-triene], for which the 50% inhibitory concentration (IC50) in data set [3] (setting [5]) is 25.5 ± 1.4 µM; in data set [1] (setting [6]), 15.3 ± 1.2 µM; in data set [2] (setting [7]), 29.8 ± 2.1 µM.
As to `CC(=O)OC1CC2(C)C3=CCC4C(C)(C)C(OC5OCC(O)C(O)C5OC5OC(C)C(O)C(O)C5OC5OCC(O)C(O)C5O)CCC4(C)C3CCC23C(=O)OC(C)(C=CC=C(C)C)C13` (centres unmarked) [Compound 7, cucumarioside B1], the IC50 in data set [3] (HCT-116, 24 h) worked out at 35.6 ± 0.6 µM; in data set [1] (Homo sapiens, HEK293, 24 h), 28.5 ± 1.5 µM; in data set [2] (Homo sapiens, MDA-MB-231, 24 h), 34 ± 2.9 µM.
The corresponding values for `COC1C(O)COC(OC2C(O)C(CO)OC(OC3C(C)OC(OC4C(OC5CCC6(C)C7CCC89C(=O)OC(C)(C=CC=C(C)C)C8C(OC(C)=O)CC9(C)C7=CCC6C5(C)C)OCC(O)C4O)C(O)C3O)C2O)C1O` (centres unmarked) [Compound 8, cucumarioside A5] are 11.4 ± 2.7 µM, 6.2 ± 0.7 µM and 13.1 ± 4.2 µM.
For the compound `CO[C@@H]1[C@@H](O)[C@H](O[C@@H]2[C@@H](O)[C@H](O[C@H]3[C@H](O)[C@@H](O[C@@H]4OC[C@@H](O)[C@H](O)[C@H]4O)[C@H](O[C@H]4[C@H](O[C@H]5CC[C@]6(C)[C@@H]7CCC89C(=O)O[C@@](C)(/C=C\C=C(C)C)[C@H]8[C@@H](OC(C)=O)C[C@@]9(C)C7=CC[C@H]6C5(C)C)OC[C@@H](O)[C@@H]4O)O[C@@H]3C)O[C@H](CO)[C@H]2O)OC[C@H]1O` (some centres unmarked) [cucumarioside C1], in the data set with MDA-MB-231 cells, the “colony formation of MDA-MB-231 cells” value is given as “almost completely suppress”. Besides, in the data set on HT-29 cells, the “colony formation of HT-29 cells” value was “almost completely suppress”. In addition, the “colony formation of RPMI-7951 cells” value in the data set on RPMI-7951 cells was “almost completely suppress”.
As for `COC1C(O)COC(OC2C(O)C(CO)OC(OC3C(C)OC(OC4C(OC5CCC6(C)C7CCC89C(=O)OC(C)(/C=C/C=C(C)C)C8C(OC(C)=O)CC9(C)C7=CCC6C5(C)C)OCC(O)C4O)C(OC4OCC(O)C(O)C4O)C3O)C2O)C1O` (centres unmarked) [cucumarioside C2], the “colony formation of MDA-MB-231 cells” value with MDA-MB-231 cells is recorded as “almost completely suppress”. Also, the “colony formation of HT-29 cells” value with HT-29 cells was “almost completely suppress”. Besides, the “colony formation of RPMI-7951 cells” value with RPMI-7951 cells is on record as “almost completely suppress”.
On to `COC1C(O)C(CO)OC(OC2C(O)C(CO)OC(OC3C(C)OC(OC4C(OC5CCC6(C)C7CCC89C(=O)OC(C)(C=CC=C(C)C)C8C(OC(C)=O)CC9(C)C7=CCC6C5(C)C)OCC(O)C4O)C(OC4OCC(O)C(O)C4O)C3O)C2O)C1O` (centres unmarked) [cucumarioside D], for which the “colony formation of SK-MEL-2 cancer cells” value with SK-MEL-2 cancer cells is reported as “highest inhibiting effect”. Besides, the “neoplastic transformation of JB6 Cl41 cells” value with JB6 Cl41 cells was “significantly inhibit”.
Take `CO[C@@H]1[C@@H](O)[C@H](O[C@@H]2[C@@H](O)[C@H](O[C@H]3[C@H](O)[C@@H](O[C@@H]4OC[C@@H](O)[C@H](O)[C@H]4O)[C@H](O[C@H]4[C@H](O[C@H]5CC[C@]6(C)[C@@H]7CCC89C(=O)O[C@@](C)(/C=C/C=C(C)C)[C@H]8[C@@H](OC(C)=O)C[C@@]9(C)C7=CC[C@H]6C5(C)C)OC[C@@H](O)[C@@H]4O)O[C@@H]3C)O[C@H](CO)[C@H]2O)O[C@H](CO)[C@H]1O` (some centres unmarked) [pacificusoside D]: in the data set with SK-MEL-2 cancer cells, the “colony formation of SK-MEL-2 cancer cells” value is listed as “highest inhibiting effect”. Also, the “neoplastic transformation of JB6 Cl41 cells” value in the data set with JB6 Cl41 cells is listed as “significantly inhibit”.
Turning to pacificusoside C, in the data set on MDA-MB-231 cells, the “colony formation of MDA-MB-231 cells” value is “almost completely suppress”. Moreover, the “colony formation of HT-29 cells” value in the data set on HT-29 cells is “almost completely suppress”. For the same compound, the “colony formation of RPMI-7951 cells” value in the data set with RPMI-7951 cells is on record as “almost completely suppress”.
